Source: patent US20230263822A1, “MODULATION OF FACTOR 11 EXPRESSION” (Ionis Pharmaceuticals, Inc., priority 2008, published 2023)
Strand notation (5' to 3'): a small letter for the sugar, then the base; units joined by * are phosphorothioate-linked, units joined directly phosphodiester-linked; [ ] holds rarer units or linkages, { } end groups; capitals alone tell only the bases. e = 2'-O-(2-methoxyethyl) (MOE); [5mC] = 5-methylcytosine; d = 2'-deoxy (DNA)

Legend:
[1] = tested on: human Factor 11 mRNA; test: Antisense inhibition of human Factor 11 in HepG2 cells by microwalk gapmers, lipofectin, 75 nM (Example 3); type: cell-based; settings: HepG2 cells, lipofectin, gapmers targeted to nucleobases 1275 to 1318 of SEQ ID NO: 1
Method in brief: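 HepG2 cells (10,000/well) were transfected via lipofectin with 75 nM 20-mer MOE gapmers (phosphorothioate, 5-methyl-C) for about 24 h. Factor 11 mRNA was measured by qRT-PCR, normalized to RIBOGREEN total RNA, and given as percent inhibition versus untreated cells.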

[2] = tested on: human Factor 11 mRNA; test: Antisense inhibition of human Factor 11 in HepG2 cells, electroporation, 8,000 nM (Example 30); type: cell-based; settings: electroporation, 8,000 nM antisense oligonucleotide
Protocol: These microwalk gapmers were tested in vitro. Cultured HepG2 cells at a density of 20,000 cells per well were transfected using electroporation with 8,000 nM antisense oligonucleotide. After a treatment period of approximately 24 hours, RNA was isolated from the cells and Factor 11 mRNA levels were measured by quantitative real-time PCR. Factor 11 mRNA levels were adjusted according to total RNA content, as measured by RIBOGREEN. Results are presented as percent inhibition of Factor 11, relative to untreated control cells.
The chimeric antisense oligonucleotides in Table 44 were designed as 5-10-5 MOE, 5-8-5 and 6-8-6 MOE gapmers. The first two listed gapmers in Table 44 are the original gapmers (ISIS 416850 and ISIS 416858) from which ISIS 445493-445543 were designed via microwalk, and are designated by an asterisk. The 5-10-5 gapmers are 20 nucleotides in length, wherein the central gap segment is comprised of ten 2′-deoxynucleotides and is flanked on both sides (in the 5′ and 3′ directions) by wings comprising five nucleotides each. The 5-8-5 gapmers are 18 nucleotides in length, wherein the central gap segment is comprised of eight 2′-deoxynucleotides and is flanked on both sides (in the 5′ and 3′ directions) by wings comprising five nucleotides each. The 6-8-6 gapmers are 20 nucleotides in length, wherein the central gap segment is comprised of eight 2′-deoxynucleotides and is flanked on both sides (in the 5′ and 3′ directions) by wings comprising six nucleotides each. For each of the motifs (5-10-5, 5-8-5 and 6-8-6), each nucleotide in the 5′ wing segment and each nucleotide in the 3′ wing segment has a 2′-MOE modification. The internucleoside linkages throughout each gapmer are phosphorothioate (P=S) linkages. All cytidine residues throughout each gapmer are 5-methylcytidines. “Human Target start site” indicates the 5′-most nucleotide to which the gapmer is targeted in the human sequence. “Human Target stop site” indicates the 3′-most nucleotide to which the gapmer is targeted in the human sequence. Each gapmer listed in Table 44 is targeted to SEQ ID NO: 1 (GENBANK Accession No. NM_000128.3). Each gapmer is Table 44 is also fully cross-reactive with the rhesus monkey Factor 11 gene sequence, designated herein as SEQ ID NO: 274 (exons 1-15 GENBANK Accession No. NW_001118167.1). ‘Rhesus monkey start site’ indicates the 5′-most nucleotide to which the gapmer is targeted in the rhesus monkey sequence. ‘Rhesus monkey stop site’ indicates the 3′-most nucleotide to which the gapmer is targeted to the rhesus monkey sequence.

Substance	% inhibition [1]	Percent inhibition of human Factor 11 mRNA levels [2]
416862 (antisense eA*eG*e[5mC]*eG*eG*dA*d[5mC]*dG*dG*d[5mC]*dA*dT*dT*dG*dG*eT*eG*e[5mC]*eA*e[5mC]) [compound 416862]	90%	89%
416865 (antisense eT*eG*eG*e[5mC]*eA*dG*d[5mC]*dG*dG*dA*d[5mC]*dG*dG*d[5mC]*dA*eT*eT*eG*eG*eT) [compound 416865]	88%	86%
445517 (antisense eA*e[5mC]*eT*eG*eG*e[5mC]*dA*dG*d[5mC]*dG*dG*dA*d[5mC]*dG*eG*e[5mC]*eA*eT*eT*eG) [compound 445517]		74%
445500 (antisense eT*eT*eG*eG*eT*eG*d[5mC]*dA*d[5mC]*dA*dG*dT*dT*dT*e[5mC]*eT*eG*eG*e[5mC]*eA) [compound 445500]		81%
445523 (antisense eT*eG*e[5mC]*eA*e[5mC]*dA*dG*dT*dT*dT*d[5mC]*dT*dG*eG*e[5mC]*eA*eG*eG) [compound 445523]		73%
445537 (antisense eG*e[5mC]*eG*eG*eA*d[5mC]*dG*dG*d[5mC]*dA*dT*dT*dG*eG*eT*eG*e[5mC]*eA) [compound 445537]		78%
445541 (antisense eG*eG*e[5mC]*eA*eG*d[5mC]*dG*dG*dA*d[5mC]*dG*dG*d[5mC]*eA*eT*eT*eG*eG) [compound 445541]		80%
445495 (antisense eG*e[5mC]*eA*e[5mC]*eA*eG*dT*dT*dT*d[5mC]*dT*dG*dG*d[5mC]*eA*eG*eG*e[5mC]*e[5mC]*eT) [compound 445495]		89%
445514 (antisense eG*eG*e[5mC]*eA*eG*e[5mC]*dG*dG*dA*d[5mC]*dG*dG*d[5mC]*dA*eT*eT*eG*eG*eT*eG) [compound 445514]		81%
445499 (antisense eT*eG*eG*eT*eG*e[5mC]*dA*d[5mC]*dA*dG*dT*dT*dT*d[5mC]*eT*eG*eG*e[5mC]*eA*eG) [compound 445499]		75%
445534 (antisense eG*eA*e[5mC]*eG*eG*d[5mC]*dA*dT*dT*dG*dG*dT*dG*e[5mC]*eA*e[5mC]*eA*eG) [compound 445534]		82%
445521 (antisense e[5mC]*eA*e[5mC]*eA*eG*dT*dT*dT*d[5mC]*dT*dG*dG*d[5mC]*eA*eG*eG*e[5mC]*e[5mC]) [compound 445521]		87%
445496 (antisense eT*eG*e[5mC]*eA*e[5mC]*eA*dG*dT*dT*dT*d[5mC]*dT*dG*dG*e[5mC]*eA*eG*eG*e[5mC]*e[5mC]) [compound 445496]		87%
445520 (antisense eA*e[5mC]*eA*eG*eT*dT*dT*d[5mC]*dT*dG*dG*d[5mC]*dA*eG*eG*e[5mC]*e[5mC]*eT) [compound 445520]		82%
445506 (antisense eA*e[5mC]*eG*eG*e[5mC]*eA*dT*dT*dG*dG*dT*dG*d[5mC]*dA*e[5mC]*eA*eG*eT*eT*eT) [compound 445506]		86%
445543 (antisense e[5mC]*eT*eG*eG*e[5mC]*dA*dG*d[5mC]*dG*dG*dA*d[5mC]*dG*eG*e[5mC]*eA*eT*eT) [compound 445543]		74%

Substance	% inhibition [1]	Percent inhibition of human Factor 11 mRNA levels [2]
445538 (antisense eA*eG*e[5mC]*eG*eG*dA*d[5mC]*dG*dG*d[5mC]*dA*dT*dT*eG*eG*eT*eG*e[5mC]) [compound 445538]		80%
445494 (antisense e[5mC]*eA*e[5mC]*eA*eG*eT*dT*dT*d[5mC]*dT*dG*dG*d[5mC]*dA*eG*eG*e[5mC]*e[5mC]*eT*e[5mC]) [compound 445494]		85%
416854 (antisense eA*eT*eT*eG*eG*dT*dG*d[5mC]*dA*d[5mC]*dA*dG*dT*dT*dT*e[5mC]*eT*eG*eG*e[5mC]) [compound 416854]	90%	86%
445529 (antisense e[5mC]*eA*eT*eT*eG*dG*dT*dG*d[5mC]*dA*d[5mC]*dA*dG*eT*eT*eT*e[5mC]*eT) [compound 445529]		85%
445515 (antisense eT*eG*eG*e[5mC]*eA*eG*d[5mC]*dG*dG*dA*d[5mC]*dG*dG*d[5mC]*eA*eT*eT*eG*eG*eT) [compound 445515]		75%
445502 (antisense e[5mC]*eA*eT*eT*eG*eG*dT*dG*d[5mC]*dA*d[5mC]*dA*dG*dT*eT*eT*e[5mC]*eT*eG*eG) [compound 445502]		83%
445526 (antisense eT*eG*eG*eT*eG*d[5mC]*dA*d[5mC]*dA*dG*dT*dT*dT*e[5mC]*eT*eG*eG*e[5mC]) [compound 445526]		81%
445516 (antisense e[5mC]*eT*eG*eG*e[5mC]*eA*dG*d[5mC]*dG*dG*dA*d[5mC]*dG*dG*e[5mC]*eA*eT*eT*eG*eG) [compound 445516]		79%
445507 (antisense eG*eA*e[5mC]*eG*eG*e[5mC]*dA*dT*dT*dG*dG*dT*dG*d[5mC]*eA*e[5mC]*eA*eG*eT*eT) [compound 445507]		85%
445535 (antisense eG*eG*eA*e[5mC]*eG*dG*d[5mC]*dA*dT*dT*dG*dG*dT*eG*e[5mC]*eA*e[5mC]*eA) [compound 445535]		83%
445533 (antisense eA*e[5mC]*eG*eG*e[5mC]*dA*dT*dT*dG*dG*dT*dG*d[5mC]*eA*e[5mC]*eA*eG*eT) [compound 445533]		87%
445519 (antisense e[5mC]*eA*eG*eT*eT*dT*d[5mC]*dT*dG*dG*d[5mC]*dA*dG*eG*e[5mC]*e[5mC]*eT*e[5mC]) [compound 445519]		81%
445524 (antisense eG*eT*eG*e[5mC]*eA*d[5mC]*dA*dG*dT*dT*dT*d[5mC]*dT*eG*eG*e[5mC]*eA*eG) [compound 445524]		75%
416855 (antisense e[5mC]*eA*eT*eT*eG*dG*dT*dG*d[5mC]*dA*d[5mC]*dA*dG*dT*dT*eT*e[5mC]*eT*eG*eG) [compound 416855]	87%	85%
445508 (antisense eG*eG*eA*e[5mC]*eG*eG*d[5mC]*dA*dT*dT*dG*dG*dT*dG*e[5mC]*eA*e[5mC]*eA*eG*eT) [compound 445508]		81%
416853 (antisense eT*eT*eG*eG*eT*dG*d[5mC]*dA*d[5mC]*dA*dG*dT*dT*dT*d[5mC]*eT*eG*eG*e[5mC]*eA) [compound 416853]	91%	84%
